From EP0582261A1, “Cephalosporin compounds and processes for the preparation thereof” (LUCKY LTD., priority 1992, dated 1994)

Columns and labels:
Experiment in all cases: MIC, two-fold dilution method on Müller-Hinton agar
Assay type in all cases: cell-based
Details in all cases: incubated at 37°C for 20 hours
[1] = tested on: Enterobacter cloacae ATCC 27508
Description: (§1) The same procedures as described in Example 163 were repeated using 7-amino-1,8-dimethyl[1,3]imidazo[1,2-c] pyrimidine-5-thione prepared in Preparation Example 36 in place of 7-amino-1-methyl[1,3]imidazo[1,2-c]pyrimidine-5-thione to yield 190mg and 180mg of the title compound(a) and (b), respectively, as white solids.
(§2) These MIC values were taken by employing a two-fold dilution method: that is, two-fold serial dilutions of each of the test compounds were made and dispersed in a Müller-Hinton agar medium; 2µl of the standard test strain which had the 10⁷ CFU(Colony Forming Unit) per ml was inoculated on the medium; and these were incubated at 37°C for 20 hours.

[2] = tested on: Pseudomonas aeruginosa ATCC 27853
Description: as §1, §2

[3] = tested on: Bacillus megaterium ATCC 9885
Description: as §1, §2

[4] = tested on: Escherichia coli ATCC 25922
Description: as §1, §2

[5] = tested on: Shigella flexneri ATCC 11836
Description: as §1, §2

[6] = tested on: Enterobacter aerogenes ATCC 29751
Description: as §1, §2

[7] = tested on: Klebsiella pneumoniae ATCC 10031
Description: as §1, §2

[8] = tested on: Staphylococcus epidermidis ATCC 12228
Description: as §1, §2

[9] = tested on: Staphylococcus aureus ATCC 10537
Description: as §1, §2

[10] = tested on: Micrococcus luteus ATCC 9341
Description: as §1, §2

[11] = tested on: Shigella sonnei ATCC 11060
Description: as §1, §2

[12] = tested on: Pseudomonas aeruginosa ATCC 10145
Description: as §1, §2

[13] = tested on: Proteus mirabilis ATCC 25933
Description: as §1, §2

[14] = tested on: Pseudomonas aeruginosa ATCC 25619
Description: as §1, §2

[15] = tested on: Streptococcus faecalis ATCC 29212
Description: as §1, §2

[16] = tested on: Providencia rettgeri ATCC 9250
Description: as §1, §2

[17] = tested on: Salmonella typhimurium ATCC 14028
Description: as §1, §2

[18] = tested on: Citrobacter freundii ATCC 8090
Description: as §1, §2

[19] = tested on: Proteus vulgaris ATCC 6059
Description: as §1, §2

[20] = tested on: Acinetobacter calcoaceticus ATCC 15473
Description: as §1, §2

[21] = tested on: Morganella morganii ATCC 8076h
Description: as §1, §2

[22] = tested on: Serratia marcescens ATCC 27117
Description: as §1, §2

[23] = tested on: Escherichia coli ATCC 10536
Description: as §1, §2

[24] = tested on: Bacillus cereus ATCC 11778
Description: as §1, §2

[25] = tested on: Staphylococcus aureus ATCC 6538p
Description: as §1, §2

| Substance | MIC values against the standard strains [1] [µg/mL] | MIC values against the standard strains [2] [µg/mL] | MIC values against the standard strains [3] [µg/mL] | MIC values against the standard strains [4] [µg/mL] | MIC values against the standard strains [5] [µg/mL] | MIC values against the standard strains [6] [µg/mL] | MIC values against the standard strains [7] [µg/mL] | MIC values against the standard strains [8] [µg/mL] | MIC values against the standard strains [9] [µg/mL] | MIC values against the standard strains [10] [µg/mL] | MIC values against the standard strains [11] [µg/mL] | MIC values against the standard strains [12] [µg/mL] | MIC values against the standard strains [13] [µg/mL] | MIC values against the standard strains [14] [µg/mL] | MIC values against the standard strains [15] [µg/mL] | MIC values against the standard strains [16] [µg/mL] | MIC values against the standard strains [17] [µg/mL] | MIC values against the standard strains [18] [µg/mL] | MIC values against the standard strains [19] [µg/mL] | MIC values against the standard strains [20] [µg/mL] | other results |
| --- | --- | --- | --- | --- | --- | --- | --- | --- | --- | --- | --- | --- | --- | --- | --- | --- | --- | --- | --- | --- | --- |
| 7-[(Z)-2-(2-aminothiazol-4-yl)-2-((R)-1-carboxyprop-1-oxyimino)acetamido]-3-(7-amino-1-methyl [1,2,4]triazolo[1,5-c]pyrimidinium-5-yl)thiomethyl-3-cephem-4-carboxylate [Exp. 86] | ≤0.008 | 1 | 0.031 | 0.063 | 0.031 | 0.25 | ≤0.008 | 0.25 | 0.13 | ≤0.008 | 0.063 | 2 | 0.13 | 1 | 16 | ≤0.008 | 0.25 | 0.13 | 0.13 | 2 | MIC values against the standard strains [21]: ≤0.008 µg/mL; MIC values against the standard strains [22]: 0.25 µg/mL; MIC values against the standard strains [23]: 0.13 µg/mL; MIC values against the standard strains [24]: 16 µg/mL; MIC values against the standard strains [25]: 0.13 µg/mL |
| 7-[(Z)-2-(2-aminothiazol-4-yl)-2-(methoxy-imino)acetamido]-3-(7-amino-1-methyl[1,2,4]triazolo[1,5-c]pyrimidinium-5-yl)thiomethyl-3-cephem-4-carboxylate [Exp. 46] | ≤0.008 | 2 | 0.063 | 0.031 | 0.016 | 0.13 | ≤0.008 | 0.063 | 0.063 | 0.016 | 0.063 | 4 | 0.13 | 2 | 16 | ≤0.008 | 0.063 | 0.031 | 0.063 | 2 | MIC values against the standard strains [21]: ≤0.008 µg/mL; MIC values against the standard strains [22]: 0.13 µg/mL; MIC values against the standard strains [23]: 0.031 µg/mL; MIC values against the standard strains [24]: 8 µg/mL; MIC values against the standard strains [25]: 0.13 µg/mL |
